Source: PMC10653547, “Synergistic effect of two antimicrobial peptides, BP203 and MAP-0403 J-2 with conventional antibiotics against colistin-resistant Escherichia coli and Klebsiella pneumoniae clinical isolates” (PLOS ONE, 2023)
≈ marks a conversion by molar mass, not a printed value. Positions of bridges follow the written chain, without caps; N, C: chain ends. Non-standard residues stand in square brackets, D forms with d. Residues, ends and D or L forms follow the SMILES beside them. *: point of attachment. X1 = CC[C@H](C)CCCCC(=O)*; Dab = NCC[C@H](N)C(=O)O

What was measured:
[1] = system: colistin-resistant E. coli clinical isolates; assay: Checkerboard assay for synergy testing; assay type: cell-based, Escherichia coli
Method in brief: (§1)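 Two-fold serial dilutions of peptide and antibiotic, alone and in combination, in CAMHB against colistin-resistant clinical isolates at 5 × 10^5 CFU/mL, 37 °C for 20–24 h. MIC is the lowest concentration with no growth; FICI = sum of each agent's MIC in combination divided by its MIC alone.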

[2] = system: colistin-resistant K. pneumoniae clinical isolates; assay: Checkerboard assay for synergy testing; assay type: cell-based, Klebsiella pneumoniae
Method in brief: as §1

[3] = system: colistin-resistant K. pneumoniae clinical isolates; assay: Colistin susceptibility by broth microdilution (CLSI); assay type: cell-based, Klebsiella pneumoniae; settings: for COL MIC: broth microdilution
Description: (§2) Ten non-duplicate clinical isolates of colistin-resistant E. coli (EC) and ten non-duplicate clinical isolates of colistin-resistant K. pneumoniae (KP) were obtained from the bacterial repository of the Division of Infectious Diseases and Tropical Medicine, Department of Medicine, Faculty of Medicine Siriraj Hospital, Mahidol University. The species identification was conducted through standard biochemical tests. Antimicrobial susceptibility testing was carried out using the disk diffusion method following CLSI guidelines. Additionally, the assessment of colistin resistance in all isolates was performed by broth microdilution following CLSI recommendations. […] The amino acid sequences of BP203 and MAP-0403 J-2 were retrieved from previous studies. These peptides are BP100 and MAP-0403 analogs, respectively. […] Antibiotic disks and defibrinated sheep blood were obtained from Oxoid (Basingstoke, UK). All culture media were purchased from Becton Dickinson (Frankin Lakes, NJ, USA). All chemicals were obtained from Sigma-Aldrich (St. Louis, MO, USA).

[4] = system: colistin-resistant E. coli clinical isolates; assay: as above; assay type: cell-based, Escherichia coli; settings: for COL MIC: broth microdilution
Description: as §2

[5] = system: MRC-5 (CCL-171) normal lung fibroblast cells; assay: Cytotoxicity assay using MTT; assay type: cell-based, human; settings: 24 h exposure
Description: MRC-5 (CCL-171) cell line, a representative of normal lung fibroblast cells, was used to investigate the cytotoxic effects of two AMPs, BP203 and MAP-0403 J-2. The cells were grown in Dulbecco’s Modified Eagle Medium (DMEM, Cytiva Life Sciences, Marlborough, MA, USA), supplemented with 10% fetal bovine serum (FBS), 1% penicillin (10,000 U/mL) and streptomycin (10,000 μg/mL) (Gibco, Waltham, MA, USA). 2×10^4 cells were seeded into each well of a 96-well plate and allowed to adhere for 24 h. Then, these cells were subjected to exposure to a medium containing a prepared two-fold serial dilution of BP203 or MAP-0403 J-2. […] 3-(4,5-Dimethylthiazol-2-yl)-2,5-Diphenyltetrazolium Bromide (MTT) was introduced into each well to achieve a concentration of 0.5 mg/mL followed by 4 h. incubation. Subsequently, formazan crystals were dissolved through the addition of 100 μL of a solubilizing solution composed of 10% SDS in 0.1 N HCl and the developed color was measured using a microtiter plate reader at an optical density (OD) of 570 nm. Cell viability was calculated as follows: (ODsample/ODcontrol) × 100.

[6] = checkerboard BP203 x colistin, EC-01
[7] = checkerboard BP203 x colistin, EC-02
[8] = checkerboard BP203 x colistin, EC-03
[9] = checkerboard BP203 x colistin, EC-04
[10] = checkerboard BP203 x colistin, EC-05
[11] = checkerboard BP203 x colistin, EC-06
[12] = checkerboard BP203 x colistin, EC-07
[13] = checkerboard BP203 x colistin, EC-08
[14] = checkerboard BP203 x colistin, EC-09
[15] = checkerboard BP203 x colistin, EC-10
[16] = checkerboard MAP-0403 J-2 x colistin, EC-01
[17] = checkerboard MAP-0403 J-2 x colistin, EC-02
[18] = checkerboard MAP-0403 J-2 x colistin, EC-03
[19] = checkerboard MAP-0403 J-2 x colistin, EC-04
[20] = checkerboard MAP-0403 J-2 x colistin, EC-05
[21] = checkerboard MAP-0403 J-2 x colistin, EC-06
[22] = checkerboard MAP-0403 J-2 x colistin, EC-07
[23] = checkerboard MAP-0403 J-2 x colistin, EC-08
[24] = checkerboard MAP-0403 J-2 x colistin, EC-09
[25] = checkerboard MAP-0403 J-2 x colistin, EC-10
[26] = checkerboard BP203 x colistin, KP-01
[27] = checkerboard BP203 x colistin, KP-02
[28] = checkerboard BP203 x colistin, KP-03
[29] = checkerboard BP203 x colistin, KP-04
[30] = checkerboard BP203 x colistin, KP-05
[31] = checkerboard BP203 x colistin, KP-06
[32] = checkerboard BP203 x colistin, KP-07
[33] = checkerboard BP203 x colistin, KP-08
[34] = checkerboard BP203 x colistin, KP-09
[35] = checkerboard BP203 x colistin, KP-10
[36] = checkerboard MAP-0403 J-2 x colistin, KP-01
[37] = checkerboard MAP-0403 J-2 x colistin, KP-02
[38] = checkerboard MAP-0403 J-2 x colistin, KP-03
[39] = checkerboard MAP-0403 J-2 x colistin, KP-04
[40] = checkerboard MAP-0403 J-2 x colistin, KP-05
[41] = checkerboard MAP-0403 J-2 x colistin, KP-06
[42] = checkerboard MAP-0403 J-2 x colistin, KP-07
[43] = checkerboard MAP-0403 J-2 x colistin, KP-08
[44] = checkerboard MAP-0403 J-2 x colistin, KP-09
[45] = checkerboard MAP-0403 J-2 x colistin, KP-10

Compound: CC[C@H](C)CCCCC(=O)N[C@@H](CCN)C(=O)N[C@H](C(=O)N[C@@H](CCN)C(=O)N[C@H]1CCNC(=O)[C@H]([C@@H](C)O)NC(=O)[C@H](CCN)NC(=O)[C@H](CCN)NC(=O)[C@H](CC(C)C)NC(=O)[C@@H](CC(C)C)NC(=O)[C@H](CCN)NC1=O)[C@@H](C)O [COL, colistin] (X1-[Dab]T[Dab][Dab][Dab][dL]L[Dab][Dab]T; lactam 4-C)
- MIC alone [1, 6]: 4 µg/mL
- MIC combination [1, 6]: 2 µg/mL
- MIC alone [1, 7]: 4 µg/mL
- MIC combination [1, 7]: 2 µg/mL
- MIC alone [1, 8]: 4 µg/mL
- MIC combination [1, 8]: 1 µg/mL
- MIC alone [1, 9]: 4 µg/mL
- MIC combination [1, 9]: 2 µg/mL
- MIC alone [1, 10]: 4 µg/mL
- MIC combination [1, 10]: 2 µg/mL
- MIC alone [1, 11]: 4 µg/mL
- MIC combination [1, 11]: 4 µg/mL
- MIC alone [1, 12]: 8 µg/mL
- MIC combination [1, 12]: 4 µg/mL
- MIC alone [1, 13]: 8 µg/mL
- MIC combination [1, 13]: 8 µg/mL
- MIC alone [1, 14]: 16 µg/mL
- MIC combination [1, 14]: 8 µg/mL
- MIC alone [1, 15]: 16 µg/mL
- MIC combination [1, 15]: 2 µg/mL
- MIC alone [1, 16]: 4 µg/mL
- MIC combination [1, 16]: 0.5 µg/mL
- MIC alone [1, 17]: 4 µg/mL
- MIC combination [1, 17]: 1 µg/mL
- MIC alone [1, 18]: 4 µg/mL
- MIC combination [1, 18]: 0.5 µg/mL
- MIC alone [1, 19]: 4 µg/mL
- MIC combination [1, 19]: 2 µg/mL
- MIC alone [1, 20]: 4 µg/mL
- MIC combination [1, 20]: 1 µg/mL
- MIC alone [1, 21]: 4 µg/mL
- MIC combination [1, 21]: 2 µg/mL
- MIC alone [1, 22]: 8 µg/mL
- MIC combination [1, 22]: 2 µg/mL
- MIC alone [1, 23]: 8 µg/mL
- MIC combination [1, 23]: 2 µg/mL
- MIC alone [1, 24]: 16 µg/mL
- MIC combination [1, 24]: 4 µg/mL
- MIC alone [1, 25]: 16 µg/mL
- MIC combination [1, 25]: 4 µg/mL
- MIC alone [2, 26]: 4 µg/mL
- MIC combination [2, 26]: 4 µg/mL
- MIC alone [2, 27]: 8 µg/mL
- MIC combination [2, 27]: 8 µg/mL
- MIC alone [2, 28]: 32 µg/mL
- MIC combination [2, 28]: 32 µg/mL
- MIC alone [2, 29]: 16 µg/mL
- MIC combination [2, 29]: 16 µg/mL
- MIC alone [2, 30]: 16 µg/mL
- MIC combination [2, 30]: 16 µg/mL
- MIC alone [2, 31]: 16 µg/mL
- MIC combination [2, 31]: 16 µg/mL
- MIC alone [2, 32]: 64 µg/mL
- MIC combination [2, 32]: 0.5 µg/mL
- MIC alone [2, 33]: 128 µg/mL
- MIC combination [2, 33]: 128 µg/mL
- MIC alone [2, 34]: 32 µg/mL
- MIC combination [2, 34]: 16 µg/mL
- MIC alone [2, 35]: 128 µg/mL
- MIC combination [2, 35]: 64 µg/mL
- MIC alone [2, 36]: 4 µg/mL
- MIC combination [2, 36]: 4 µg/mL
- MIC alone [2, 37]: 8 µg/mL
- MIC combination [2, 37]: 8 µg/mL
- MIC alone [2, 38]: 32 µg/mL
- MIC combination [2, 38]: 32 µg/mL
- MIC alone [2, 39]: 16 µg/mL
- MIC combination [2, 39]: 16 µg/mL
- MIC alone [2, 40]: 16 µg/mL
- MIC combination [2, 40]: 16 µg/mL
- MIC alone [2, 41]: 16 µg/mL
- MIC combination [2, 41]: 16 µg/mL
- MIC alone [2, 42]: 64 µg/mL
- MIC combination [2, 42]: 128 µg/mL
- MIC alone [2, 43]: 128 µg/mL
- MIC combination [2, 43]: 128 µg/mL
- MIC alone [2, 44]: 32 µg/mL
- MIC combination [2, 44]: 32 µg/mL
- MIC alone [2, 45]: 128 µg/mL
- MIC combination [2, 45]: 64 µg/mL
- %Resistance [3]: 100%
- COL MIC ([3]; KP-01): 4 µg/mL
- COL MIC ([3]; KP-02): 8 µg/mL
- COL MIC ([3]; KP-03): 32 µg/mL
- COL MIC ([3]; KP-04): 16 µg/mL
- COL MIC ([3]; KP-05): 16 µg/mL
- COL MIC ([3]; KP-06): 16 µg/mL
- COL MIC ([3]; KP-07): 64 µg/mL
- COL MIC ([3]; KP-08): 128 µg/mL
- COL MIC ([3]; KP-09): 32 µg/mL
- COL MIC ([3]; KP-10): 128 µg/mL
- MICs, all isolates ([3]; all K. pneumoniae isolates): ≥ 4 µg/mL
- %Resistance [4]: 100%
- COL MIC ([4]; EC-01): 4 µg/mL
- COL MIC ([4]; EC-02): 4 µg/mL
- COL MIC ([4]; EC-03): 4 µg/mL
- COL MIC ([4]; EC-04): 4 µg/mL
- COL MIC ([4]; EC-05): 4 µg/mL
- COL MIC ([4]; EC-06): 4 µg/mL
- COL MIC ([4]; EC-07): 8 µg/mL
- COL MIC ([4]; EC-08): 8 µg/mL
- COL MIC ([4]; EC-09): 16 µg/mL
- COL MIC ([4]; EC-10): 16 µg/mL
- MICs, all isolates ([4]; all E. coli isolates): ≥ 4 µg/mL

Compound: CC[C@H](C)[C@H](NC(=O)CN)C(=O)NCC(=O)N[C@@H](C)C(=O)N[C@H](C(=O)N[C@@H](CC(C)C)C(=O)N[C@@H](CCCCN)C(=O)N[C@H](C(=O)N[C@@H](CC(C)C)C(=O)N[C@H](C(=O)N[C@H](C(=O)NCC(=O)N[C@@H](CC(C)C)C(=O)N1CCC[C@H]1C(=O)N[C@@H](C)C(=O)N[C@@H](CC(C)C)C(=O)N[C@H](C(=O)N[C@@H](CO)C(=O)N[C@@H](Cc1c[nH]c2ccccc12)C(=O)N[C@H](C(=O)N[C@@H](CCCCN)C(=O)N[C@@H](CCCNC(=N)N)C(=O)N[C@@H](CCCCN)C(=O)N[C@@H](CCCNC(=N)N)C(=O)N[C@@H](CCC(N)=O)C(=O)N[C@@H](CCC(N)=O)C(N)=O)[C@@H](C)CC)[C@@H](C)CC)[C@@H](C)O)[C@@H](C)O)C(C)C)C(C)C [melittin]
- IC50 [5]: 16.13 µg/mL (≈ 5.67 µM)
